Assays:
amylase, LDH, CPK = test: Gastrointestinal obstruction model, blood parameters (amylase, LDH, CPK); conditions: Table 10; rat gastrointestinal obstruction model
Method: This experimental line was carried out as a test line to evaluate the promotion of intestinal fluid absorption or the secretory suppressing action, using the change in the intestinal fluid weight in the jejunum after bowel obstruction as an indicator. Moreover, blood parameters of deviation enzymes amylase (pancreas), lactate dehydrogenase (LDH, liver), and creatine phosphokinase (CPK, skeletal muscle, cardiac muscle etc.) were measured as indicators of tissue disorders.
Anesthesia was introduced with inhalation of 2% isoflurane and laughing gas:oxygen=7:3, and this was maintained throughout the surgery. A median incision was made in the abdomen, and the jejunum at about 10 cm from the musculus suspensorius duodeni was ligated with a surgical suture. Then, the incision site was promptly sutured, and the rats were fasted until compound administration. […]
One hour after compound administration, a median incision was made in the abdomen under inhalation anesthesia, and 1.5 mL of blood was collected from the abdominal vena cava. […] The fluid and blood on the jejunum surface were removed with a paper towel, nerves, blood vessels, and fat attached to the jejunum was removed, this was cut into 6 cm lengths, and wet weight was measured. This was then dried at 36 degrees for 24 hours, and dry weight was measured. […]

[1] = Pharmacokinetics test with rats (intravenous and subcutaneous administration); conditions: rat
Method: PBS solution was prepared by dissolving 1 tablet of Phosphate buffered saline (P4417 from Sigma) in 200 mL of ultrapure water.
0.2 mL of the collected blood was promptly mixed with 0.2 mL of the aprotinin-containing EDTA-PBS solution prepared in the above 68-1, and left on ice for 30 minutes or more. […] As blank plasma, plasma obtained by similarly treating the blood collected from untreated rat cervical vein was employed. Plasma samples were frozen in storage until employed for measurement. […] The standard solution for creating a standard curve was prepared as follows. First, the blank plasma obtained in the above 68-2 was diluted with the assay buffer supplied in the EIA kit similarly to the plasma sample, and this was used as the assay buffer for standard solution preparation (for example, when diluting the plasma sample to 100-fold, 1/100 amount of blank plasma was added to the assay buffer supplied in the EIA kit, and this was used as the assay buffer for standard solution preparation). […] Moreover, the predicted initial concentration (C0) was determined by the extrapolation method for intravenous administration, t1/2 and MRT were calculated, and the maximum plasma concentration (Cmax) was determined from the actual value for subcutaneous administration.
Moreover, the parameters obtained were employed to calculate bioavailability from the following mathematical formula. […]

Row | SMILES | LDH activity compared to the vehicle (amylase, LDH, CPK) | amylase activity compared to the vehicle (amylase, LDH, CPK) | C0, intravenous administration ([1]; Table 5D, no unit at the table (Table 4: nM), extrapolation) | C0, intravenous administration ([1]; Tables 5B-5F, no unit printed in these tables (Table 5A footnote: nM))
1 | C[C@@H](O)[C@@H]1NC(=O)[C@H](CCCCN)NC(=O)[C@@H](Cc2c[nH]c3ccccc23)NC(=O)[C@H](Cc2ccccc2)NC(=O)[C@@H](NC(=O)[C@H](N)Cc2ccccc2)CSSC[C@@H](C(=O)N[C@H](CO)[C@@H](C)O)NC1=O [octreotide] | low value compared to the vehicle | equivalent to the vehicle | – | –
2 | C[C@H](N)C(=O)NCC(=O)N[C@H]1CSSC[C@@H](C(=O)O)NC(=O)[C@H](CO)NC(=O)[C@H]([C@@H](C)O)NC(=O)[C@H](Cc2ccccc2)NC(=O)[C@H]([C@@H](C)O)NC(=O)[C@H](CCCCN)NC(=O)[C@H](Cc2c[nH]c3ccccc23)NC(=O)[C@H](Cc2ccccc2)NC(=O)[C@H](Cc2ccccc2)NC(=O)[C@H](CC(N)=O)NC(=O)[C@H](CCCCN)NC1=O [SRIF14] | – | – | 819 | 819

From patent US9422357B2, “Glycosylated polypeptide and drug composition containing said polypeptide” (priority 2011, dated 2016)
